Reference: patent US9643973B1, “Crystalline form of diclosulam, a process for its preparation and use of the same” (Rotam Agrochem International Company Limited, priority 2016, dated 2017)
Where two headings read alike, the source gives them in different places.

Experiments:
[1] = type: physicochemical; details: for Concentration measured by HPLC after treatment: pH 7 buffer, 20° C.
Description: A stock pH 7 buffer solution was prepared by adding aqueous sodium hydroxide solution (0.1 M, 145 mL) to aqueous potassium dihydrogen phosphate solution (0.1 M, 250 mL), and then adding sufficient distilled water to adjust the final volume to 500 mL. At least 1 time and up to about 5 times the amount of diclosulam needed for saturation was added to a mixing vessel containing stock buffer solution at the test temperature (e.g., 20° C.). The mixture was magnetically stirred in the dark while being maintained at the test temperature and the samples were intermittently and periodically removed for analysis. The samples were centrifuged using a high speed, temperature-controlled centrifuge at the test temperature for about 20 minutes at ≧12000 G to remove suspended particles. An aliquot of each supernatant was taken for analysis. The concentration of diclosulam in the supernatant was determined by a high pressure liquid chromatography (HPLC) with a reversed phase chromatography column and UV detection. The method should include development of best-fit calibration curves based on at least three standards using linear regression analysis Samples were successively withdrawn from the mixing vessel and analyzed until three successive samples show little or no variation in concentration. The test is preferably replicated to ensure accuracy.

[2] = Viscosity (stated in words, no method given); type: physicochemical
[3] = OD formulation, original concentration 40%
[4] = SG formulation, original concentration 25%
[5] = WG formulation, original concentration 25%

Structure (SMILES)	Concentration measured by HPLC after treatment [1, 3] [%]	Concentration measured by HPLC after treatment [1, 4] [%]	Concentration measured by HPLC after treatment [1, 5] [%]	Viscosity (in words) ([2]; listed as diclosulam in amorphous state)	Solubility (in words) [1]	Viscosity (in words) ([2]; listed as crystalline modification I of diclosulam)
CCOc1nc(F)cc2nc(S(=O)(=O)Nc3c(Cl)cccc3Cl)nn12 [Amorphous diclosulam, 2′,6′-dichloro-5-ethoxy-7-fluoro[1,2,4]triazolo[1,5-c]pyrimidine-2-sulfonanilide, reference compound]	14	15	12	highly viscous		
CCOc1nc(F)cc2nc(S(=O)(=O)Nc3c(Cl)cccc3Cl)nn12 [Diclosulam, crystalline modification I, 2′,6′-dichloro-5-ethoxy-7-fluoro[1,2,4]triazolo[1,5-c]pyrimidine-2-sulfonanilide]	35	24.9	23		significant increase	significant decrease
